Measured values: patent publication US9994581B2, “Bromodomain inhibitors” (AbbVie Inc., priority 2013, dated 2018)
pEC50, pKi: −log10 of the molar value. Like-named read-outs stand apart in the source and are kept apart here.

Experiments:
[1] = target: BRD4 (BDI-BDII_K57-K550) (Homo sapiens, UniProt O60885); experiment: TR-FRET bromodomain binding assay; conditions: His-tagged tandem bromodomain, Alexa647-labeled probe; Ki calculated from IC50s, probe Kd and probe concentration
Experimental: A time-resolved fluorescence resonance energy transfer (TR-FRET) assay was used to determine the affinities of compounds of the Examples listed in Table 1 for the tandem domain of bromodomain BRD4. […] An Alexa647-labeled BET-inhibitor was used as the fluorescent probe in the assay.
TR-FRET data were normalized to the means of 24 no-compound controls (“high”) and 8 controls containing 1 μM un-labeled probe (“low”). Percent inhibition was plotted as a function of compound concentration and the data were fit with the 4 parameter logistic equation to obtain IC50s. Inhibition constants (Ki) were calculated from the IC50s, probe Kd and probe concentration. Typical Z′ values were between 0.65 and 0.75.

[2] = system: breast cancer cell line MX-1; experiment: MX-1 cell line proliferation assay (3-day, Cell Titer Glo); type: cell-based; conditions: 72 hours, read-out: Cellular proliferation: EC50
Experimental: The impact of compounds of the Examples on cancer cell proliferation was determined using the breast cancer cell line MX-1 (ATCC) in a 3-day proliferation assay and the data are reported in Table 1. […] For compound testing, MX-1 cells were plated in 96-well black bottom plates at a density of 5000 cells/well in 90 μL of culture media and incubated at 37° overnight to allow cell adhesion and spreading. Compound dilution series were prepared in DMSO via a 3-fold serial dilution from 3 mM to 0.1 μM. The DMSO dilution series were then diluted 1:100 in phosphate buffered saline, and 10 μL of the resulted solution were added to the appropriate wells of the MX-1 cell plate. The final compound concentrations in the wells were 3, 1, 0.3, 0.1, 0.03, 0.01, 0.003, 0.001, 0.0003, and 0.0001 μM, or 1, 0.3, 0.1, 0.03, 0.01, 0.003, 0.001, 0.0003, 0.0001, and 0.00003 μM.
Luminescence readings from the Cell Titer Glo assay were normalized to the DMSO treated cells and analyzed using the GraphPad Prism software with sigmoidal curve fitting to obtain EC50s.

Row | Compound | pKi [1] | pEC50 ([2]; Homo sapiens, MX1, MX-1 cells) | pEC50 ([2]; MX-1 cells)
1 | Cn1cc2c(cc1=O)OCCCCc1cc(C#N)ccc1Oc1ccc(NS(C)(=O)=O)cc1-2 [Example A-47, N-(11-cyano-2-methyl-3-oxo-2,3,6,7,8,9-hexahydrodibenzo[4,5:7,8][1,6]dioxacyclododecino[3,2-c]pyridin-17-yl)methanesulfonamide] | 8.43 | 7.61 | 
2 | CCS(=O)(=O)Nc1ccc2c(c1)-c1cn(C)c(=O)cc1OCCCCc1cccnc1O2 [Example A-46, N-(12-methyl-11-oxo-5,6,7,8,11,12-hexahydrobenzo[4,5][1,6]dioxacyclododecino[7,8-b:3,2-c′]dipyridin-15-yl)ethanesulfonamide] | 7.49 | 7.29 | 
3 | CCS(=O)(=O)c1ccc2c(c1)-c1nn(C)c(=O)cc1OCCCCc1cc(Cl)ccc1O2 [Example A-53, 11-chloro-17-(ethylsulfonyl)-2-methyl-6,7,8,9-tetrahydrodibenzo[4,5:7,8][1,6]dioxacyclododecino[3,2-c]pyridazin-3(2H)-one] | 8.20 | 7.32 | 
4 | Cn1cc2c(cc1=O)OCCCCc1cc(OC(F)(F)F)ccc1Oc1ccc(NS(C)(=O)=O)cc1-2 [Example A-30, N-[2-methyl-3-oxo-11-(trifluoromethoxy)-2,3,6,7,8,9-hexahydrodibenzo[4,5:7,8][1,6]dioxacyclododecino[3,2-c]pyridin-17-yl]methanesulfonamide] | 8.94 | 8.06 | 
5 | CCS(=O)(=O)Nc1ccc2c(c1)-c1nn(C)c(=O)cc1OCCCCc1cc(C#N)ccc1O2 [Example A-56, N-(11-cyano-2-methyl-3-oxo-2,3,6,7,8,9-hexahydrodibenzo[4,5:7,8][1,6]dioxacyclododecino[3,2-c]pyridazin-17-yl)ethanesulfonamide] | 8.40 | 7.77 | 
6 | CCS(=O)(=O)c1ccc2c(c1)-c1cn(C)c(=O)cc1OCC/C=C/c1ccc(Cl)cc1O2 [Example A-24, (E)-12-chloro-17-(ethylsulfonyl)-2-methyl-6,7-dihydrodibenzo[4,5:7,8][1,6]dioxacyclododecino[3,2-c]pyridin-3(2H)-one] | 8.48 | 7.79 | 
7 | CCS(=O)(=O)c1ccc2c(c1)-c1cn(C)c(=O)cc1OCCc1ccccc1O2 [Example A-2, 3-(ethylsulfonyl)-6-methyl-10,11-dihydrodibenzo[4,5:7,8][1,6]dioxecino[3,2-c]pyridin-7(6H)-one] | 6.63 |  | 6.15
8 | Cn1cc2c(cc1=O)OCCCCc1cc(Cl)ccc1Oc1ncccc1-2 [Example A-27, 11-chloro-2-methyl-6,7,8,9-tetrahydrobenzo[11,12][1,6]dioxacyclododecino[2,3-b:4,5-c′]dipyridin-3(2H)-one] | 7.91 | 7.20 | 
9 | CCS(=O)(=O)c1ccc2c(c1)-c1nn(C)c(=O)cc1OCCCCc1ccncc1O2 [Example A-59, 17-(ethylsulfonyl)-2-methyl-6,7,8,9-tetrahydrobenzo[4,5]pyrido[3′,4′:7,8][1,6]dioxacyclododecino[3,2-c]pyridazin-3(2H)-one] | 7.62 | 6.95 | 

Second part, the compound after the results:

Row | pKi [1] | pEC50 ([2]; Homo sapiens, MX1, MX-1 cells) | pEC50 ([2]; MX-1 cells) | Compound
10 | 6.76 | < 6.00 |  | Cn1cc2c(cc1=O)OCCNC(=O)c1cc(Cl)ccc1Oc1ccc(N)cc1-2 [Example B-3, 17-amino-11-chloro-2-methyl-7,8-dihydrodibenzo[f,i]pyrido[3,4-k][1,8,4]dioxazacyclododecine-3,9(2H,6H)-dione]
11 | 8.79 | 7.34 |  | CCS(=O)(=O)Nc1ccc2c(c1)-c1cn(C)c(=O)cc1OCCN(C(C)=O)Cc1cc(Cl)ccc1O2 [Example B-7, N-(8-acetyl-11-chloro-2-methyl-3-oxo-2,3,6,7,8,9-hexahydrodibenzo[f,i]pyrido[3,4-k][1,8,4]dioxazacyclododecin-17-yl)ethanesulfonamide]
12 | 7.81 | 6.85 |  | CC(=O)Nc1ccc2c(c1)-c1cn(C)c(=O)cc1OCCN(C(C)=O)Cc1cc(Cl)ccc1O2 [Example B-2, N-(8-acetyl-11-chloro-2-methyl-3-oxo-2,3,6,7,8,9-hexahydrodibenzo[f,i]pyrido[3,4-k][1,8,4]dioxazacyclododecin-17-yl)acetamide]
